Converted amounts (≈) assume the structure as drawn. Like-named read-outs stand apart in the source and are kept apart here.
Assays:
S. aureus = assay: In vitro antibacterial activity (MIC), S. aureus; assay type: cell-based, Staphylococcus Aureus; details: Staphylococcus aureus
Experimental: Strains: strain ATCC25923 is available from the American Type Culture Collection, and is used as a standard strain of Staphylococcus Aureus;
Liquid medium: MH bouillon culture medium, a product of BD Company, United States of American;
Tested Compounds: compounds 12a, 13 and 14 prepared according to the methods above, and Linezolid purchased from Pfizer.
(§1) The test strain was inoculated into the liquid medium and cultured at 37° C. for 16-18 h. The culture liquid and MH medium were put into two blank wells of a 96-well plate, respectively. Then, the absorptions thereof were measured by a Microplate reader. The difference between the absorption values of the culture liquid and MH medium is the adsorption of the bacteria. The concentration of the culture liquid can be calculated according to the formula of 1OD=50 million CFU/mL. The culture liquid was diluted with the MH bouillon culture medium to 5000 CFU/mL for further use.
(§2) Compounds 12a, 13 and 14 were dissolved in DMSO to 1 mg/mL, and then filtered with a 0.22 μm filter to obtain the compound solutions. And then they were gradually diluted to a desired concentration (10× final concentration) with the liquid medium, so as to obtain a series of dilutions. The final concentration grade of the dilutions of each tested compound consists of 14 concentrations, which includes: 0.03125 μg/mL, […], 0.125 μg/mL, 0.25 μg/mL, […], 1 μg/mL, 2 μg/mL, 4 μg/mL, 8 μg/mL, 16 μg/mL, 32 μg/mL, 64 μg/mL, 128 μg/mL and 256 μg/mL.
(§3) 10 μL of each of the compound dilutions above was added into a well of a 96-well plate. 90 μL of the culture liquid (5000 CFU/mL) was added into each of the wells, respectively, mixed with the dilutions to render the tested compound concentration to the final concentration. The resulted mixture was incubated at 37° C. for 16-18 h, and then the OD630 thereof was measured. A culture liquid free of the tested compounds is used as a blank control, and three parallel tests with the same concentration of each compound were performed. The minimum inhibitory concentration (MIC) of each compound on the standard strain of Staphylococcus Aureus and other test strains was determined. Specifically, among the culture liquid contained in the wells of the micro-plate, the first three lowest concentrations under which growth of the test strains could be observed were chose for further evaluation of the MIC. A culture liquid free of tested compounds was used as a blank control. Each of the culture liquids was homogenized independently, and then was diluted with a sterile saline. Each of the diluted culture liquids was plated onto a MH bouillon plate and incubated at 37° C. for 20 h in incubator. After the incubation, the number of the colonies on each plate was counted. As compared with the blank control group, the lowest concentration of each of the test compound groups, at which 80% reduction in the colony number of the strains was achieved, was recorded as the MIC.

E. faecalis = assay: In vitro antibacterial activity (MIC), E. faecalis; assay type: cell-based; details: Enterococcus faecalis
Experimental: as §1, §2, §3

HEK-293 = assay: Cytotoxicity experiment (MTT), HEK-293; assay type: cell-based; details: Homo sapiens, HEK293, 48 h, HEK-293 normal cells, read-out: Inhibition ratio
Experimental: (§4) (1) Inoculating cells: Experimental cells in the growth of logarithmic phase were collected and suspended. The cell concentration of the suspension was adjusted so that they could be inoculated into the wells of 96-well micro plate at a density between 10^3-10^4 cells per well (200 μl per well). (2) Culturing cells: The cells were cultured at normal conditions for 3 days and then exposed to 50 uM compounds for test. (3) Coloring reaction: At 24 h, 48 h and 72 h after the cells being exposed to the compounds for test, 200 μl culture medium containing 20 μl MTT solution (5 mg/ml) was added into each well, and the well was further incubated at 37° C. for 2 hours to terminate the incubation. After the incubation, the supernatants were removed from the wells. In the event there were suspended cells in the wells, centrifugation should be performed before removal of supernatant from the wells. After the removal, 150 μl DMSO was added to each well and mixed thoroughly by agitation for 10 mins to fully dissolve crystals. (4) Ascertainment of colorimetry: The absorbance value at 490 nm of each well was determined by Enzyme-linked immunosorbent Monitor. The growth curve of the experimental cells was plotted by taking time as x-coordinate and absorbance value as y-coordinate. In addition, an inhibition ratio could be calculated in accordance with the following formula: Inhibition ratio=(absorbance value of control group-absorbance value of administering group)/absorbance value of control group×100%.

S. agalactiae = assay: In vitro antibacterial activity (MIC), S. agalactiae; assay type: cell-based; details: Streptococcus agalactiae
Experimental: as §1, §2, §3

S. pneumoniae = assay: In vitro antibacterial activity (MIC), S. pneumoniae; assay type: cell-based; details: Streptococcus pneumoniae
Experimental: as §1, §2, §3

L-02 = assay: Cytotoxicity experiment (MTT), L-02; assay type: cell-based; details: Homo sapiens, L02, 48 h, L-02 normal cells, read-out: Inhibition ratio
Experimental: as §4

## CC(=O)NC[C@H]1CN(c2ccc(-n3nccc3-c3ccc(F)cc3)c(F)c2)C(=O)O1 [Compound 14i, (S)-N-((3-(3-fluoro-4-(5-(4-fluorophenyl)-1H-pyrazol-1-yl)phenyl)-2-oxooxazolidin-5-yl)methyl)acetamide]
S. aureus; S. aureus (12 strains), read-out: MIC
  MIC: 1 to 8 µg/mL (≈ 2.42 to 19.4 µM)
E. faecalis; E. faecalis (7 strains), read-out: MIC
  MIC: 1 to 8 µg/mL (≈ 2.42 to 19.4 µM)
HEK-293
  cytotoxicity at 50 µM: 5.5%
S. agalactiae; S. agalactiae (5 strains), read-out: MIC
  MIC: 0.5 to 4 µg/mL (≈ 1.21 to 9.7 µM)
other
  melting point: 111.4 to 112.9 °C
S. pneumoniae; S. pneumoniae (10 strains), read-out: MIC
  MIC: 0.5 to 8 µg/mL (≈ 1.21 to 19.4 µM)
L-02
  cytotoxicity at 50 µM: 9%

## COc1ccc(-c2ccnn2-c2ccc(N3C[C@H](CNC(C)=O)OC3=O)cc2F)cc1OC [Compound 14j, (S)-N-((3-(3-fluoro-4-(5-(3,4-dimethoxyphenyl)-1H-pyrazol-1-yl)phenyl)-2-oxooxazolidin-5-yl)methyl) acetamide]
S. aureus
  MIC: 0.25 to 2 µg/mL (≈ 0.55 to 4.4 µM)
E. faecalis
  MIC: 0.5 to 2 µg/mL (≈ 1.1 to 4.4 µM)
HEK-293
  cytotoxicity at 50 µM: 7%
S. agalactiae
  MIC: 0.25 to 2 µg/mL (≈ 0.55 to 4.4 µM)
other
  melting point: 153.7 to 156.1 °C
S. pneumoniae
  MIC: 0.25 to 1 µg/mL (≈ 0.55 to 2.2 µM)
L-02
  cytotoxicity at 50 µM: 12%

Source: patent publication US8946436B2, “Oxazolidinone compounds and their uses in preparation of antibiotics” (Sichuan Gooddoctor Pharmaceutical Group Co., Ltd., priority 2011, dated 2015)
